The source of these data is ChEMBL document CHEMBL1201862, “PubChem BioAssay data set” (2004).

Test systems include SK-MEL-5; HT-29; Malme-3M; SR; NCI-H226; RPMI-8226; CCRF-CEM; K562; MCF7; HOP-92; SK-MEL-28; HL-60; U-251; SK-OV-3; HOP-62; COLO 205; HCT-116; SNB-75; UO-31.
Holding throughout (assay): NCI tumour cell line growth inhibition, 48 h

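These data come from cells grown in 96-well plates and exposed to compound for 48 hours at five concentrations. At the GI50, growth is halved.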 Active and inactive are the calls of the source. Cut-off read from the data, not from the text of the source: active = GI50 up to about 1.1 µM and inactive = higher.

`NC1(P(=O)(O)O)CCCCC1`: the GI50 with SK-MEL-5, in the test on HT-29, in the test on Malme-3M, with SR, in the test on NCI-H226 and in the test on RPMI-8226 was > 100 µM (inactive) throughout. In addition, the GI50 in the test on CCRF-CEM is > 100 µM (inactive); in the test on K562, > 100 µM (inactive); in the test on MCF7, > 100 µM (inactive); with HOP-92, > 100 µM (inactive); in the test on SK-MEL-28, > 100 µM (inactive); in the test with HL-60 it was < 0.01 µM (active). For the same compound, the GI50 with U-251, in the test on SK-OV-3, with HOP-62, in the test with COLO 205, in the test on HCT-116 and in the test with SNB-75 was > 100 µM (inactive) throughout.
In the case of `O=C(Cn1ccc(=O)[nH]c1=O)Nc1ccc(C(=O)O)c(O)c1`, the GI50 with SK-MEL-5, in the test with HT-29, in the test on Malme-3M, with SR, in the test with NCI-H226 and in the test with RPMI-8226 was > 100 µM (inactive) in each case. Further, the GI50 in the test on CCRF-CEM, with K562, in the test with MCF7, in the test on HOP-92, in the test on SK-MEL-28 and in the test with HL-60 was > 100 µM (inactive) throughout. Further, the GI50 was > 100 µM (inactive) in the test on U-251; > 100 µM (inactive) in the test on UO-31; < 0.01 µM (active) in the test with SK-OV-3; 26.2 µM (inactive) in the test on HOP-62; > 100 µM (inactive) in the test on COLO 205; > 100 µM (inactive) with HCT-116. Also, in the test on SNB-75, the GI50 is > 100 µM (inactive).
As for `Cc1c(CCOC=O)c(=O)[nH]c2nncn12`, the GI50 in the test on SK-MEL-5, in the test on HT-29, with Malme-3M, in the test on SR, in the test on NCI-H226 and in the test on RPMI-8226 was > 100 µM (inactive) each time. Besides, the GI50 with CCRF-CEM, in the test with K562, with MCF7, in the test with HOP-92, in the test on SK-MEL-28 and in the test on HL-60 was > 100 µM (inactive) in each case. The GI50 in the test with U-251, in the test on UO-31, with SK-OV-3, in the test with HOP-62, with COLO 205 and with HCT-116 was > 100 µM (inactive) throughout. Besides, in the test with SNB-75, the GI50 was > 100 µM (inactive).
`CN1CCC2(CC1)/C(=N/C1CCCCC1)NC(=O)N2c1ccccc1`: the GI50 in the test with SK-MEL-5, in the test with HT-29, in the test on Malme-3M, with SR, in the test on NCI-H226 and in the test with RPMI-8226 was > 100 µM (inactive) throughout. Moreover, the GI50 in the test with CCRF-CEM was > 100 µM (inactive); with MCF7 it was > 100 µM (inactive); in the test on HOP-92 it was 43.7 µM (inactive); in the test with SK-MEL-28 it was > 100 µM (inactive); with HL-60, > 100 µM (inactive); in the test with U-251, > 100 µM (inactive). The GI50 in the test with UO-31, in the test on SK-OV-3, with HOP-62, in the test with COLO 205, in the test with HCT-116 and with SNB-75 was > 100 µM (inactive) each time.
As to `N=c1oc2ccc([N+](=O)[O-])cc2cc1C(=O)Nc1ccccn1`, the GI50 with SK-MEL-5 is 93.5 µM (inactive); in the test with HT-29 it was 49.8 µM (inactive); in the test with Malme-3M it was 21.7 µM (inactive); in the test with SR, 58.1 µM (inactive); with NCI-H226, 71.9 µM (inactive); in the test on RPMI-8226, 54.2 µM (inactive). Further, the GI50 is 31.5 µM (inactive) with CCRF-CEM; > 100 µM (inactive) with K562; 12.2 µM (inactive) with MCF7; 71.9 µM (inactive) in the test with HOP-92; 28.8 µM (inactive) with SK-MEL-28; 49.4 µM (inactive) in the test on HL-60. Besides, the GI50 was 45.5 µM (inactive) with U-251; > 100 µM (inactive) with SK-OV-3; 25.3 µM (inactive) in the test with HOP-62; 44 µM (inactive) in the test with COLO 205; 32.4 µM (inactive) in the test with HCT-116; 60.1 µM (inactive) in the test on SNB-75.
Consider `CCCCC(=O)NC1(c2cc3ccccc3s2)CCCCC1`, for which the GI50 in the test with SK-MEL-5 is > 100 µM (inactive); in the test on HT-29 it was > 100 µM (inactive); in the test on Malme-3M, > 100 µM (inactive); in the test with SR, > 100 µM (inactive); in the test with NCI-H226, > 100 µM (inactive); in the test on RPMI-8226 it was 8.81 µM (inactive). For the same compound, the GI50 with CCRF-CEM is 19.4 µM (inactive); with K562, > 100 µM (inactive); in the test with MCF7, 85.9 µM (inactive); with HOP-92 it was > 100 µM (inactive); with SK-MEL-28, > 100 µM (inactive); with HL-60 it was 4.89 µM (inactive). The GI50 in the test with U-251, in the test on UO-31, with SK-OV-3, with HOP-62, in the test on COLO 205 and with HCT-116 was > 100 µM (inactive) in each case. The GI50 with SNB-75 was > 100 µM (inactive).
In the case of `O=C1c2sccc2C(=O)c2c(CO)csc21`, the GI50 with SK-MEL-5 is 0.83 µM (active); with HT-29, 3.3 µM (inactive); in the test with Malme-3M, 1.91 µM (inactive); with SR, 3.42 µM (inactive); in the test on NCI-H226 it was 4.82 µM (inactive); in the test on RPMI-8226, 5.26 µM (inactive). In addition, the GI50 in the test on CCRF-CEM was 3.37 µM (inactive); with K562 it was 7.01 µM (inactive); in the test with MCF7, 5.12 µM (inactive); in the test with HOP-92, 7.5 µM (inactive); in the test on SK-MEL-28 it was 7.8 µM (inactive); in the test with HL-60, 1.29 µM (inactive). The GI50 in the test with U-251 is 6.03 µM (inactive); with UO-31, 7.76 µM (inactive); in the test on SK-OV-3, 11.4 µM (inactive); in the test on HOP-62, 4.71 µM (inactive); with COLO 205 it was 2.69 µM (inactive); in the test with HCT-116, 3.04 µM (inactive). In addition, the GI50 in the test on SNB-75 is 5.24 µM (inactive).
For `CC12CCC(C(=O)O1)C(C)(C)O2` (stereo unspecified), the GI50 in the test with HT-29, in the test with Malme-3M, in the test with SR, with NCI-H226, in the test on RPMI-8226 and with CCRF-CEM was > 100 µM (inactive) throughout. The GI50 in the test with K562, with MCF7, in the test on HOP-92, in the test with SK-MEL-28, with HL-60 and in the test with U-251 was > 100 µM (inactive) throughout. The GI50 in the test on UO-31, with SK-OV-3, in the test with HOP-62, in the test on HCT-116 and in the test on SNB-75 was > 100 µM (inactive) each time.
For `O=C1CC(c2ccccc2)C2(C(=O)NC(=S)NC2=O)C(c2ccccc2)C1` (stereo unspecified), the GI50 with SK-MEL-5 is > 75 µM (inactive); with HT-29, > 75 µM (inactive); in the test with Malme-3M it was > 75 µM (inactive); in the test with SR, 71 µM (inactive); with NCI-H226, > 75 µM (inactive); in the test with RPMI-8226, 38.7 µM (inactive). Further, the GI50 is > 75 µM (inactive) in the test with CCRF-CEM; > 75 µM (inactive) with K562; > 75 µM (inactive) in the test on MCF7; 13.3 µM (inactive) in the test with HOP-92; > 75 µM (inactive) with SK-MEL-28; 41.3 µM (inactive) in the test with HL-60. In addition, the GI50 with U-251, in the test with UO-31, in the test on HOP-62, in the test on COLO 205, in the test on HCT-116 and with SNB-75 was > 75 µM (inactive) throughout.
For `O=C(/C=C/C=C/c1ccccc1)c1ccccc1`, the GI50 was 16.3 µM (inactive) with SK-MEL-5; 16.2 µM (inactive) in the test with HT-29; 10 µM (inactive) in the test with Malme-3M; 11.2 µM (inactive) in the test on SR; 16.7 µM (inactive) in the test on NCI-H226; 16.1 µM (inactive) in the test with RPMI-8226. Besides, the GI50 was 17.1 µM (inactive) in the test with K562; 16.3 µM (inactive) in the test on MCF7; 18.4 µM (inactive) with HOP-92; 17.5 µM (inactive) with SK-MEL-28; 3.6 µM (inactive) with HL-60; 14 µM (inactive) in the test on U-251. Also, the GI50 in the test with UO-31 was 18.3 µM (inactive); in the test on SK-OV-3, 22.2 µM (inactive); in the test on COLO 205, 17.7 µM (inactive); in the test with HCT-116, 17.6 µM (inactive); in the test on SNB-75 it was 17.8 µM (inactive).
As for `COc1ccc(/C=C/C(=O)/C=C/c2ccc(OC)cc2)cc1`, the GI50 in the test on SK-MEL-5 is 31.3 µM (inactive); in the test with HT-29, 29.3 µM (inactive); in the test on Malme-3M, > 100 µM (inactive); with SR, 22.5 µM (inactive); with NCI-H226 it was 22.4 µM (inactive); in the test on RPMI-8226, 5.01 µM (inactive). Besides, the GI50 is 31.8 µM (inactive) in the test on CCRF-CEM; 31.6 µM (inactive) in the test with K562; 47.8 µM (inactive) in the test on MCF7; 32.5 µM (inactive) in the test on HOP-92; > 100 µM (inactive) in the test on SK-MEL-28; 20 µM (inactive) with HL-60. For the same compound, the GI50 with U-251 is 23.7 µM (inactive); in the test on UO-31, > 100 µM (inactive); in the test with SK-OV-3, > 100 µM (inactive); with HOP-62, > 100 µM (inactive); in the test on COLO 205 it was 34.5 µM (inactive); in the test on HCT-116 it was 11.2 µM (inactive). Also, the GI50 in the test with SNB-75 was 38.9 µM (inactive).
